{
  "source": "patent US9125953B2",
  "about": "“Halogenated ether complex” (SAPIOTEC GMBH, priority 2010, dated 2015)",
  "origin": "cited, not measured here",
  "data": [
    {"smiles": "OC[C@H]1O[C@@H]2O[C@H]3[C@H](O)[C@@H](O)[C@@H](O[C@H]4[C@H](O)[C@@H](O)[C@@H](O[C@H]5[C@H](O)[C@@H](O)[C@@H](O[C@H]6[C@H](O)[C@@H](O)[C@@H](O[C@H]7[C@H](O)[C@@H](O)[C@@H](O[C@H]1[C@H](O)[C@H]2O)O[C@@H]7CO)O[C@@H]6CO)O[C@@H]5CO)O[C@@H]4CO)O[C@@H]3CO", "note": "[α-cyclodextrin]", "values": [
      {"measurement": "solubility of unsubstituted α-cyclodextrin in water", "value": 14.5, "unit": "% by weight"}
    ]}
  ]
}
